From patent US4882359A, “Azacycloalkane derivatives, absorption promoters containing the derivatives as the effective ingredient and external preparations containing the absorption promoters” (priority 1986, dated 1989)
Like-named read-outs stand apart in the source and are kept apart here.

Experiments:
[1] = Percutaneous absorption of pindolol in rats, serum concentration by HPLC; assay type: in vivo, Wistar-strain male rats; conditions: relative to Control (Vehicle) = 1.0 of the same series in Table 5
Experimental: There were provided groups each consisting of four Wistar-strain male rats each weighing 200 to 250 g and having their dorsal skin hair shorn with an electric shaver.
Each of the test solutions (pindolol-containing preparations) was applied to the shorn dorsal skin of test rats of one of the groups in an amount of 150 μl/2.5×2.5 cm^2 and then sealed up. Three hours after the application of the test solution, the blood of the test rats was collected and measured for serum concentration of pindolol by HPLC.
For comparison, the above procedure was followed except that there was used a control solution which was the same as said test solution except for non-use of any compounds of this invention, and also followed using a comparative test solution which was the same as the test solution except for the substitution of a comparative compound for the compound of this invention.

[2] = Skin penetration of pindolol from test solution, diffusion cell method; assay type: in vitro ADME, female hairless mice
glucose level in blood [3] = experiment: Percutaneous absorption of glibenclamide: glucose level in blood of glucose-loaded rats; assay type: in vivo, Wistar-strain male rats
Experimental: There were prepared control and test solutions having the following respective formulations (Table 8): […]
In the tests, there were used groups each consisting of four Wistar-strain male rats which weighed about 200 to 250 g and abstained from food for 24 hours.
Each of the control solutions A and B and the test solution indicated in the above Table 8 was applied to the dorsal skins, shorn by an electric clipper or shaver, of the rats of one group in an amount of 175 μl/2.5×2.5 cm^2 and then sealed up. Three hours after sealing up, 1.5 ml of 20% glucose was subcutaneously injected into said rats. Two hours after the glucose injection, the blood of the rats was collected and measured for glucose level in blood.
For comparison, the above procedure was followed except that azone was substituted for the compound of Example 12 in the test solution.
For further comparison, the blood of rats of one group which had been subjected only to 24 hours' abstinence from food (this group being hereinafter referred to as "normal group"), was measured for glucose level in blood. The rat groups to which the control solution A, the control solution B and the test solution were applied, are hereinafter referred to as "control group A", "control group B" and "test group", respectively.

[4] = Skin penetration of 5-FU from test solution, diffusion cell method; assay type: in vitro ADME, female hairless mice
[5] = Skin penetration of various drugs from test solution, diffusion cell method; assay type: in vitro ADME, female hairless mice
glucose level in blood [6] = experiment: Rectal absorption of insulin from suppository: glucose level in blood of rabbits; assay type: in vivo, male rabbits; conditions: insulin suppository 0.3 g/kg rectal, 3% promoter where used
Experimental: There were prepared the following suppositories for use in normal, control and test groups, respectively, each group consisting of five male rabbits weighing 2.5 to 3.5 kg each.
The three suppositories were into the rectums of the rabbit groups in an amount of 0.3 g suppository/kg, respectively. Thereafter, blood was collected from the rabbits through their ear vein three times with the lapse of time to measure the three collected blood samples for glucose level in blood by a glucose oxidase method. […] The results are indicated in terms of a change in glucose level in blood with respect to the glucose level in blood prior to the administration of the suppositories.

[7] = Rectal absorption of antibiotics from suppositories, serum concentration by HPLC; assay type: in vivo, male rabbits; conditions: relative to Control (Vehicle) = 1.0, equals AUC ratio
Experimental: There was prepared the following suppositories of antibiotics for use in control and test groups, respectively, each group consisting of five male rabbits weighing 2.5 to 3.5 kg each.

[8] = Rectal absorption of indomethacin and 5-FU from suppositories; assay type: in vivo, rabbits
Experimental: Each of male rabbits was fasted for 24 hrs prior to the following Experiment. The two suppositories were into the rectums of the rabbit groups in an amount of 0.3 g suppository/kg, respectively. Thereafter, blood was collected from the rabbits through their ear vein to measure the collected blood samples for the serum concentration of antibiotic by HPLC.
There was prepared test suppositories having the following formulations: […]
The same procedure of Example 151 was followed except that the above suppositories were used and that 3 or 4 rabbits were used in each group.

[9] = test system: dorsal skin of Japanese-native rabbits; experiment: Primary skin irritation test (Draize's method); assay type: in vivo; set-up: key to Average irritation score, 24 hours / Average irritation score, 48 hours / Average irritation score, 72 hours: Draize points: 0-2 mild, 2-6 moderate, 6-8 severe irritation
Experimental: As one of tests on the compounds of this invention for their topical toxicity, a primary skin irritation test was made on skins using rabbits as the subjects. More particularly, an adhesive plaster for use in batch tests, to which 100 μl of a 3% test solution of each of the compounds of Examples 12, 37, 57 and 73 of this invention in 100 ml of polyethylene glycol 300 had dropwise been applied, was applied to the hair-shorn dorsal skin of three Japanese-native rabbits weighing 2.5 to 3.0 kg each and then sealed up on the dorsal skin for 24 hours. The rabbits were evaluated three times for their dorsal skin irritative reaction 24, 48 and 72 hours after removal of the plaster by using a method in accordance with the Draize's method.
The results are as shown in Table 18 in which the overall evaluation is represented by the following equation. [formula] and is graded into mild irritation (0-2 points), moderate irritation (2-6 points) and severe irritation (6-8 points).

[10] = relative to Control (Vehicle) = 1.0; equals ratio of 48 hrs values
Experimental: There were investigated the effects of the compound of this invention on the percutaneous penetration of ketoprofen using the dorsal skin of female hairless mice (each 9 weeks old) by a diffusion cell method which comprised adding 0.5 ml of said test solution to the donor side and measuring the amount of ketoprofen permeated into the receptor layer by performance liquid chromatography (HPLC). For comparison, the above procedure was followed except that a control solution containing no compound of this invention was substituted for said test solution containing the compound of this invention.

[11] = hydrophylic ointment, relative to Control (Vehicle) = 1.0
[12] = gel ointment, relative to Control (Vehicle) = 1.0
[13] = acryl tape, relative to Control (Vehicle) = 1.0
[14] = relative to Control (Vehicle) = 1.0
Experimental: There were investigated the effects of the compound of this invention on the percutneous penetration of phenol red which is difficult to be penetrated using the dorsal skin of female hairless mice (each 9 weeks old) by a diffusion cell method which comprised adding 0.5 ml of a sodium chloride injection containing 2 mM of phenol red to the donor side and measuring the amount of phenol red permeated into the receptor layer by high-pace optimal densitometric meter (559 nm).

in vivo = conditions: rat

With `CCCCCCCCCCSCCN1CCCC1=O` [Example 12] the “Activity (serum concentration of pindolol)” value [1] was 47.8, the “Cumulative amount of pindolol permeated, 24 hrs later” value [2] was 50.0 ± 7.0 µM and the “Cumulative amount of pindolol permeated, 48 hrs later” value [2] was 127.6 ± 4.8 µM. For the same molecule, the “Activity (pindolol permeation)” value ([2]; test solution, relative to Control (Vehicle) = 1.0) was 34.5, the Glucose level (glucose level in blood [3]; glibenclamide 0.6 wt.% solution on dorsal skin, two hours after s.c. 20% glucose) was 115 ± 4 mg/dL and the Inhibition rate (glucose level in blood [3]; glucose level, relative to control group A and normal group) was 46.4%. The “Cumulative amount of 5-FU permeated, 24 hrs later” value ([4]; 3.0 wt.% test compound, 5-FU 1.8 wt.% in ethanol/water, 24 hrs) was 465 ± 83 µM, the “Cumulative amount of 5-FU permeated, 48 hrs later” value ([4]; 3.0 wt.% test compound, 5-FU 1.8 wt.% in ethanol/water, 48 hrs) was 963 ± 22 µM and the “Activity (5-FU permeation)” value ([4]; relative to Control (Vehicle) = 1.0) was 4.7. The “Activity (skin penetration)” value ([5]; drug: 1,25-Dihydroxy VD3) was 5.4, the “Activity (skin penetration)” value ([5]; drug: 8-Bromocyclic AMP) was 50.3 and the “Activity (skin penetration)” value ([5]; drug: Chlordiazepoxide) was 4.8. The “Activity (skin penetration)” value ([5]; drug: Clonidine) was 6.3, the “Activity (skin penetration)” value ([5]; drug: Clotrimazole) was 3.2 and the “Activity (skin penetration)” value ([5]; drug: Diazepam) was 3.5. The “Activity (skin penetration)” value ([5]; drug: Erythromycin) was 4.5, the “Activity (skin penetration)” value ([5]; drug: Estradiol) was 2.0 and the “Activity (skin penetration)” value ([5]; drug: Ketotifen) was 3.8. The “Activity (skin penetration)” value ([5]; drug: Lidocain) was 10.3, the “Activity (skin penetration)” value ([5]; drug: Nicotinic acid) was 15.3 and the “Activity (skin penetration)” value ([5]; drug: Nifedipine) was 6.2. The “Activity (skin penetration)” value ([5]; drug: Prostaglandin E2) was 4.8, the “Activity (skin penetration)” value ([5]; drug: Scopolamin) was 2.4 and the “Activity (skin penetration)” value ([5]; drug: Testosterone) was 2.5. The “Activity (skin penetration)” value ([5]; drug: Triamcinolone) was 5.5, the “Activity (skin penetration)” value ([5]; drug: p-Aminobenzoic acid) was 12.3 and the “Changes of glucose level to the initial, 0.5 hr” value (glucose level in blood [6]; 0.5 hr) was -30 mg/dL. The “Changes of glucose level to the initial, 1 hr” value (glucose level in blood [6]; 1 hr) was -29 mg/dL, the “Changes of glucose level to the initial, 3 hrs” value (glucose level in blood [6]; 3 hrs) was -22 mg/dL and the “Activity (rectal absorption)” value ([7]; ABPC suppository) was 6.3. For the same molecule, the “Activity (rectal absorption)” value ([7]; CET suppository) was 3.0, the “Activity (rectal absorption)” value ([8]; drug: 5-FU) was 4.8 and the “Activity (rectal absorption)” value ([8]; drug: Indomethacin) was 2.5. The “Average irritation score, 24 hours” value ([9]; 3% solution in polyethylene glycol 300, 24 hours after removal of plaster) was 0.3 ± 0.3, the “Average irritation score, 48 hours” value ([9]; 3% solution in polyethylene glycol 300, 48 hours after removal of plaster) was 0.3 ± 0.3 and the “Average irritation score, 72 hours” value ([9]; 3% solution in polyethylene glycol 300, 72 hours after removal of plaster) was 0.5 ± 0.5. The “Overall evaluation (skin irritation)” value ([9]; graded from irritation scores at 24, 48 and 72 hours) was “Mild (mild irritation (0-2 points))”, the “Activity (ketoprofen permeation)” value [10] was 3.3 and the “Activity (indomethacin permeation)” value [11] was 3.2. The “Activity (indomethacin permeation)” value [12] was 18.4, the “Activity (pindolol permeation)” value [13] was 3.9 and the “Activity (phenol red permeation)” value [14] was 86.5. The LD50 at 168 h (in vivo; po) was greater than 5000 mg/kg and the LD50 at 168 h (in vivo; sc) was greater than 5000 mg/kg.
